According to ChEMBL document CHEMBL4507289, “Data for DCP probe GSM1” (2021):

What was measured:
Details in all cases: Compound concentration 1000.0 nM
[1] = target: Dual specificity protein kinase CLK4 (Homo sapiens) (UniProt Q9HAZ1)
[2] = target: Serine/threonine-protein kinase PLK3 (Homo sapiens) (UniProt Q9H4B4)
[3] = target: Testis-specific serine/threonine-protein kinase 3 (Homo sapiens) (UniProt Q96PN8)
[4] = target: Tyrosine-protein kinase HCK (Homo sapiens) (UniProt P08631)
[5] = target: Cyclin-dependent kinase-like 3 (Homo sapiens) (UniProt Q8IVW4)
[6] = target: Dual specificity tyrosine-phosphorylation-regulated kinase 1B (Homo sapiens) (UniProt Q9Y463)
[7] = target: Serine/threonine-protein kinase ULK1 (Homo sapiens) (UniProt O75385)
[8] = system: Hepatocyte growth factor receptor (Homo sapiens), P08581 [M1250T]
[9] = system: eIF-2-alpha kinase GCN2 (Homo sapiens), Q9P2K8 [S808G]
[10] = target: Casein kinase II subunit alpha (Homo sapiens) (UniProt P68400)
[11] = target: Tyrosine-protein kinase receptor Tie-1 (Homo sapiens) (UniProt P35590)
[12] = target: Calcium/calmodulin-dependent protein kinase type 1G (Homo sapiens) (UniProt Q96NX5)
[13] = target: Interferon-induced, double-stranded RNA-activated protein kinase (Homo sapiens) (UniProt P19525)
[14] = target: Serine/threonine-protein kinase BRSK1 (Homo sapiens) (UniProt Q8TDC3)
[15] = target: Mitogen-activated protein kinase kinase kinase 2 (Homo sapiens) (UniProt Q9Y2U5)
[16] = target: Inhibitor of nuclear factor kappa-B kinase subunit beta (Homo sapiens) (UniProt O14920)
[17] = target: Tyrosine-protein kinase Blk (Homo sapiens) (UniProt P51451)
[18] = target: Wee1-like protein kinase (Homo sapiens) (UniProt P30291)
[19] = target: Serine/threonine-protein kinase 32C (Homo sapiens) (UniProt Q86UX6)
[20] = target: Calcium/calmodulin-dependent protein kinase type II subunit gamma (Homo sapiens) (UniProt Q13555)
[21] = target: Non-receptor tyrosine-protein kinase TYK2 (Homo sapiens) (UniProt P29597)
[22] = target: Death-associated protein kinase 3 (Homo sapiens) (UniProt O43293)
[23] = target: Serine/threonine-protein kinase PknB (Mycobacterium tuberculosis) (UniProt P9WI81)
[24] = target: Tyrosine-protein kinase Lck (Homo sapiens) (UniProt P06239)
[25] = system: Tyrosine-protein kinase ABL1 (Homo sapiens), P00519 [Y253F]
[26] = system: Proto-oncogene tyrosine-protein kinase receptor Ret (Homo sapiens), P07949 [V804L]
[27] = system: Tyrosine-protein kinase ABL1 (Homo sapiens), P00519 [H396P]
[28] = target: Serine/threonine-protein kinase Nek9 (Homo sapiens) (UniProt Q8TD19)
[29] = target: Glycogen synthase kinase-3 alpha (Homo sapiens) (UniProt P49840)
[30] = target: Muscle, skeletal receptor tyrosine-protein kinase (Homo sapiens) (UniProt O15146)
[31] = target: Serine/threonine-protein kinase MARK2 (Homo sapiens) (UniProt Q7KZI7)
[32] = target: Mitogen-activated protein kinase kinase kinase 12 (Homo sapiens) (UniProt Q12852)
[33] = target: Dual specificity mitogen-activated protein kinase kinase 2 (Homo sapiens) (UniProt P36507)
[34] = target: Serine/threonine-protein kinase 38 (Homo sapiens) (UniProt Q15208)
[35] = target: Serine/threonine-protein kinase B-raf (Homo sapiens) (UniProt P15056)
[36] = target: NUAK family SNF1-like kinase 2 (Homo sapiens) (UniProt Q9H093)
[37] = target: Vascular endothelial growth factor receptor 2 (Homo sapiens) (UniProt P35968)
[38] = target: Calcium/calmodulin-dependent protein kinase type II subunit alpha (Homo sapiens) (UniProt Q9UQM7)
[39] = target: Casein kinase I isoform alpha (Homo sapiens) (UniProt P48729)
[40] = target: Interleukin-1 receptor-associated kinase 4 (Homo sapiens) (UniProt Q9NWZ3)
[41] = target: Cyclin-dependent kinase 4 (Homo sapiens) (UniProt P11802)
[42] = target: Serine/threonine-protein kinase Chk1 (Homo sapiens) (UniProt O14757)
[43] = system: Tyrosine-protein kinase ABL1 (Homo sapiens), P00519 [T315I]
[44] = target: Serine/threonine-protein kinase 25 (Homo sapiens) (UniProt O00506)
[45] = target: Serine/threonine-protein kinase TAO2 (Homo sapiens) (UniProt Q9UL54)

Sequence of Vascular endothelial growth factor receptor 2 (Homo sapiens) (P35968 whole entry): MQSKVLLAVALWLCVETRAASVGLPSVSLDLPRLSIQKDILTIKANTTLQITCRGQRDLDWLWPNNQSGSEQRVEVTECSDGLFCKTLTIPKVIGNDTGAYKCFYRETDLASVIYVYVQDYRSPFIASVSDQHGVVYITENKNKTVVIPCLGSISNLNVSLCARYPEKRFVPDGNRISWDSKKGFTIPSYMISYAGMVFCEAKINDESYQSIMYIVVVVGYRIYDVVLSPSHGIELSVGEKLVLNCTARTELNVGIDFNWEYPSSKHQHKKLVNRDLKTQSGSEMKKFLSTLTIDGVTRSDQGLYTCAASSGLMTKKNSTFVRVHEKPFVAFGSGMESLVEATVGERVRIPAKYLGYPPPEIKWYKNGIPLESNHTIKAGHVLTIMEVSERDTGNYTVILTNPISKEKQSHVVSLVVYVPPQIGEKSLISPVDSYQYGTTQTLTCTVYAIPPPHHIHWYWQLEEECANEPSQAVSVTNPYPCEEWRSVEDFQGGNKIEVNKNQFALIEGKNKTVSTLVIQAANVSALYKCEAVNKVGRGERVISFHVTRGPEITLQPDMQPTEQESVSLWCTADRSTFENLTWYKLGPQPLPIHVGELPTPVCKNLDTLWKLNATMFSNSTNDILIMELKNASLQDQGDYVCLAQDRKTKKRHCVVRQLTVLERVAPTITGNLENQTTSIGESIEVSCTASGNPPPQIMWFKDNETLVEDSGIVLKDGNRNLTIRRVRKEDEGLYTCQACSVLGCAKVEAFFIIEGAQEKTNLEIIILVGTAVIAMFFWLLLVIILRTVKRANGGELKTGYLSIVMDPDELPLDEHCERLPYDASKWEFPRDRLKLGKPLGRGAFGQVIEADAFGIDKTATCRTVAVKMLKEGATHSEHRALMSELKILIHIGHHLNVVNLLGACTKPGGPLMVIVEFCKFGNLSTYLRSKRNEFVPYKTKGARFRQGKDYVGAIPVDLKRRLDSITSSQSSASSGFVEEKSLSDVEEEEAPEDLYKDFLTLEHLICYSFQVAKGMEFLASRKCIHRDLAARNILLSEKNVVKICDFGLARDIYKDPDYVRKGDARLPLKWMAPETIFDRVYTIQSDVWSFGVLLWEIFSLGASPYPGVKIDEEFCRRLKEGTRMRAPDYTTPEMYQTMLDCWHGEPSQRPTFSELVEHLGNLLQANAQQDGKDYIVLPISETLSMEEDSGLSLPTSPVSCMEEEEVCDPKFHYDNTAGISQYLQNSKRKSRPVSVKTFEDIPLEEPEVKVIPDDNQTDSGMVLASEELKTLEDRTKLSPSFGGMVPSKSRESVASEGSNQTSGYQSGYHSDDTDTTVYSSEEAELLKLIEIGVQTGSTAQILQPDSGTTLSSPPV
Sequence of NUAK family SNF1-like kinase 2 (Homo sapiens) (Q9H093 whole entry): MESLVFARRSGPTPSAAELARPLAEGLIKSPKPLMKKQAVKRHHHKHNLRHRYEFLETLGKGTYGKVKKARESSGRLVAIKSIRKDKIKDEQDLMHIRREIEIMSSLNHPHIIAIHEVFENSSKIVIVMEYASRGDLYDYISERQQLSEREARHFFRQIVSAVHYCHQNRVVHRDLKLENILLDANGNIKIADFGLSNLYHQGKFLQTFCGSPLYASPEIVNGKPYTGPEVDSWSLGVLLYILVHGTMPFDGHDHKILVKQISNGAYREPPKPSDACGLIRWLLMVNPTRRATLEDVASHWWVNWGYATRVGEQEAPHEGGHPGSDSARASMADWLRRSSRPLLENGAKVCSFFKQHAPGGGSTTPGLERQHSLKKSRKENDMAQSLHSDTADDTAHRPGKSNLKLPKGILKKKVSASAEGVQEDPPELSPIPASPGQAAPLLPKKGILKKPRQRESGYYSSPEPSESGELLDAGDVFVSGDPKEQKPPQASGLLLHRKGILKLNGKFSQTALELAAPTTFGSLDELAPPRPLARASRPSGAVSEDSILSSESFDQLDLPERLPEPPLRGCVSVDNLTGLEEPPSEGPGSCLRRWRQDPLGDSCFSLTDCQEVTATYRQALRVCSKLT
Sequence of Serine/threonine-protein kinase 32C (Homo sapiens) (Q86UX6 whole entry): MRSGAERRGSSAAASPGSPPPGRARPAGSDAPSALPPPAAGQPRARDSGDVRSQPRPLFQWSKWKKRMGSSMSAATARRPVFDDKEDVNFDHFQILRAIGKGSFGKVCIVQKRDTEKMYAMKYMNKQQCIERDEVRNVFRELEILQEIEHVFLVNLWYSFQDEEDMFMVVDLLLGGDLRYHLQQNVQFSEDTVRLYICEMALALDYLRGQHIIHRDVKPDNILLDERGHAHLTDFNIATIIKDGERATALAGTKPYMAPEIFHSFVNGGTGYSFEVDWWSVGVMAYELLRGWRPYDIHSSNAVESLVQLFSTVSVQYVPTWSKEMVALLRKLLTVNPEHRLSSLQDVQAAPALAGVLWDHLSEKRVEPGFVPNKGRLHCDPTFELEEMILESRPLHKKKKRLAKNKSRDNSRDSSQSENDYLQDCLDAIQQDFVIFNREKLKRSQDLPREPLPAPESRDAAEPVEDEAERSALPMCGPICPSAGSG
Sequence of Serine/threonine-protein kinase 25 (Homo sapiens) (O00506 whole entry, looked up): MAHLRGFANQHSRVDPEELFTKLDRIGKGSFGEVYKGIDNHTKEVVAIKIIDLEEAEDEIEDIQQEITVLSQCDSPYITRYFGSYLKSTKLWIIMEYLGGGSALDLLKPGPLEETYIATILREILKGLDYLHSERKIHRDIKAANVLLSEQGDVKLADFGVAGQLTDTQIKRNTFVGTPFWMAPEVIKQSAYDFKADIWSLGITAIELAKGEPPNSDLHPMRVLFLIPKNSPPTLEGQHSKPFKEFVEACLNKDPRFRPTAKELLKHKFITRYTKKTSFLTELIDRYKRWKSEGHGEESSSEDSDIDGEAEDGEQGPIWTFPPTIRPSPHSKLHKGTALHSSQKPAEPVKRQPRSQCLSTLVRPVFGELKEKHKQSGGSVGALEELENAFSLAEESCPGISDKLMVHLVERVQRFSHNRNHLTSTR
Sequence of Wee1-like protein kinase (Homo sapiens) (P30291 whole entry, looked up): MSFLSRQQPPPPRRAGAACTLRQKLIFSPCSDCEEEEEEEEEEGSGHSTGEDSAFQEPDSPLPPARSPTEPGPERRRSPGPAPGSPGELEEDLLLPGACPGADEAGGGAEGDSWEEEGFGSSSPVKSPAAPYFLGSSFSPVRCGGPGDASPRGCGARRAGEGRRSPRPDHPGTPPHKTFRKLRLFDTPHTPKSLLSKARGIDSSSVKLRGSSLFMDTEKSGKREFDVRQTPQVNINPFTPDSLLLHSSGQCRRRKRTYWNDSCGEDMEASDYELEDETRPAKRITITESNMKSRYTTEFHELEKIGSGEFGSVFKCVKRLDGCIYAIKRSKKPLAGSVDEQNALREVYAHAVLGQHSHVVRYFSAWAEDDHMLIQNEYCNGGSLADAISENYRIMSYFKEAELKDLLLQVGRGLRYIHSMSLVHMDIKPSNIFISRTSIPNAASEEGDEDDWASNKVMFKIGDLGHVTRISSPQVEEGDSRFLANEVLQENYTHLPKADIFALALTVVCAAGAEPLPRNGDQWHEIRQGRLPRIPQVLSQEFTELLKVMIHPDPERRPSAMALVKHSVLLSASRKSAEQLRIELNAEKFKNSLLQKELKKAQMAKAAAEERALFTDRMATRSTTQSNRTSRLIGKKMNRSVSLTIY
Sequence of Tyrosine-protein kinase Lck (Homo sapiens) (P06239 2-509 limits assumed): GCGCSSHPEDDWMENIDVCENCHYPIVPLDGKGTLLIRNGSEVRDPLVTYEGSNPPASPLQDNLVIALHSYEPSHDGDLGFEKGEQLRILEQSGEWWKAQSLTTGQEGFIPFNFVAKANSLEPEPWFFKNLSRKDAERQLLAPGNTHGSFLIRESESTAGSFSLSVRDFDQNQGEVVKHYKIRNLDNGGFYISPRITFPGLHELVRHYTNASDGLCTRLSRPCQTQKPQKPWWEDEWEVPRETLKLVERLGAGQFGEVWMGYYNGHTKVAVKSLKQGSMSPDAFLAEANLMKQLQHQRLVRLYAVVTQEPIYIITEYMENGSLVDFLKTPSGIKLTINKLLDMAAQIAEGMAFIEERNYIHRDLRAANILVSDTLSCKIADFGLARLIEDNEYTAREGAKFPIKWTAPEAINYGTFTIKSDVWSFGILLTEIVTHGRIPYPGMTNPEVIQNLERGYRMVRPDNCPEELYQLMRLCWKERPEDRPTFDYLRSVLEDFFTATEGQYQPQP
Sequence of Calcium/calmodulin-dependent protein kinase type II subunit alpha (Homo sapiens) (Q9UQM7 whole entry, canonical isoform): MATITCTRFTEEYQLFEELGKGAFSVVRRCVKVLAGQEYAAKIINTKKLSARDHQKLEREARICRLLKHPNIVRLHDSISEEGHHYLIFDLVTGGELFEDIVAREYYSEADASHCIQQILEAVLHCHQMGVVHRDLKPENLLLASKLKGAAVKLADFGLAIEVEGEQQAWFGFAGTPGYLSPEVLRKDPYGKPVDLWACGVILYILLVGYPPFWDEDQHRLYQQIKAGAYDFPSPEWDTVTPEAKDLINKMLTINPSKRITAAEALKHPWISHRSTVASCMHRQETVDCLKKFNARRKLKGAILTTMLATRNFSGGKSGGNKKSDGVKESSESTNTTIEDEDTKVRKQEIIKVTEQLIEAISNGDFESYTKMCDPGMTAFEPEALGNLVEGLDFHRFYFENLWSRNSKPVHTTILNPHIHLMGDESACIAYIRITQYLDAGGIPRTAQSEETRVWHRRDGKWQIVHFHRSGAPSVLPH
Sequence of Dual specificity protein kinase CLK4 (Homo sapiens) (Q9HAZ1 whole entry, looked up): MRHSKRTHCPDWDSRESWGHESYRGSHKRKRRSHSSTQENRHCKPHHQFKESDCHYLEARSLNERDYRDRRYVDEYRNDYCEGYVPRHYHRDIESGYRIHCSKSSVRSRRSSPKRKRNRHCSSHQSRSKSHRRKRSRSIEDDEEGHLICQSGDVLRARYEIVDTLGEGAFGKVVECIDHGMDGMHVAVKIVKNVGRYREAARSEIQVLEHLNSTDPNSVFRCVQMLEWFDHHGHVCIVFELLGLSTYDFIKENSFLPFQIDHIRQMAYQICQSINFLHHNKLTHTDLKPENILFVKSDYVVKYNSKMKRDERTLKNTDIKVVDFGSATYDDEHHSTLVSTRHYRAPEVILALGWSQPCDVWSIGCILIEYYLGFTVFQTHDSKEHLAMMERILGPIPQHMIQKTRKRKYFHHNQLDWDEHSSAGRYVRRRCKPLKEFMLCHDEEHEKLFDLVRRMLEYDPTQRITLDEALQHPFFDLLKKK

In the case of `COc1cc(-c2cn([C@H]3CCc4ccccc4N(CC(F)(F)F)C3=O)nn2)ccc1-n1ccc(C)n1`, the residual activity [1] is reported as 80%, the residual activity [2] is reported as 96% and the residual activity [3] is reported as 100%. For the same compound, the residual activity [4] was 100%, the residual activity [5] was 88% and the residual activity [6] was 100%. It also gave a residual activity [7] of 76%, a residual activity [8] of 100% and a residual activity [9] of 100%. The residual activity [10] was 81%, the residual activity [11] was 100% and the residual activity [12] was 100%. For the same compound, the residual activity [13] was 87%, the residual activity [14] was 81% and the residual activity [15] was 100%. For the same compound, the residual activity [16] was 99%, the residual activity [17] was 100% and the residual activity [18] was 100%. For the same compound, the residual activity [19] was 84%, the residual activity [20] was 100% and the residual activity [21] was 100%. The residual activity [22] was 100%, the residual activity [23] was 78% and the residual activity [24] was 100%. The residual activity [25] was 87%, the residual activity [26] was 100% and the residual activity [27] was 47%. The residual activity [28] was 100%, the residual activity [29] was 86% and the residual activity [30] was 99%. It also gave a residual activity [31] of 93%, a residual activity [32] of 100% and a residual activity [33] of 98%. It also gave a residual activity [34] of 100%, a residual activity [35] of 100% and a residual activity [36] of 88%. The residual activity [37] was 79%, the residual activity [38] was 85% and the residual activity [39] was 98%. It also gave a residual activity [40] of 95%, a residual activity [41] of 53% and a residual activity [42] of 100%. For the same compound, the residual activity [43] was 70%, the residual activity [44] was 100% and the residual activity [45] was 100%.
`COc1cc(-c2cn([C@H]3CCc4c(F)cccc4N(CC(F)(F)F)C3=O)nn2)ccc1-n1cnc(C)c1` gave a residual activity [1] of 100%, a residual activity [2] of 100% and a residual activity [3] of 97%. The residual activity [4] was 100%, the residual activity [5] was 100% and the residual activity [6] was 100%. The residual activity [7] was 100%, the residual activity [8] was 100% and the residual activity [9] was 100%. The residual activity [10] was 100%, the residual activity [11] was 100% and the residual activity [12] was 100%. The residual activity [13] was 100%, the residual activity [14] was 92% and the residual activity [15] was 94%. The residual activity [16] was 100%, the residual activity [17] was 100% and the residual activity [18] was 79%. For the same compound, the residual activity [19] was 100%, the residual activity [20] was 100% and the residual activity [21] was 100%. The residual activity [22] was 100%, the residual activity [23] was 82% and the residual activity [24] was 100%. For the same compound, the residual activity [25] was 100%, the residual activity [26] was 100% and the residual activity [27] was 52%. It also gave a residual activity [28] of 100%, a residual activity [29] of 100% and a residual activity [30] of 100%. The residual activity [31] was 100%, the residual activity [32] was 100% and the residual activity [33] was 100%. It also gave a residual activity [34] of 89%, a residual activity [35] of 100% and a residual activity [36] of 100%. For the same compound, the residual activity [37] was 100%, the residual activity [38] was 100% and the residual activity [39] was 100%. It also gave a residual activity [40] of 100%, a residual activity [41] of 88% and a residual activity [42] of 100%. For the same compound, the residual activity [43] was 83%, the residual activity [44] was 100% and the residual activity [45] was 100%.
